Assay [1] concerns the target T1, PKR in ex vivo red blood cells from healthy individuals (Homo sapiens, UniProt P30613).
T1 construct: endogenous in cells; host or cells: human red blood cells isolated from fresh peripheral blood of healthy individuals
In words: ex vivo pyruvate kinase (PKR) activity experiment, red blood cells of healthy individuals. Format: cell-based. As to conditions: 3 hours co-cultivation. The procedure: To test the effects of the compound of the present disclosure on PKR activation in ex vivo red blood cells from healthy individuals and patients with thalassemia.
• i. 5 g of glucose, 85 mg of adenine, and 2.625 g of mannitol were weighed and added into a 50 mL centrifuge tube. 40 mL of PBS was added to dissolve (sonicate for 30 minutes until completely dissolved). The solution was filtered through a 0.22 µm filter, then added to 460 mL of sterile PBS and mixed thoroughly.
• i. Fresh human peripheral blood was collected. K2EDTA was used as the anticoagulant. 1 part anticoagulant with 9 parts blood was mixed, then centrifuged at 500 g for 10 minutes at room temperature to remove the plasma. • ii. Packed red blood cells: 1.5 volumes of PBS were added, then centrifuged at 2000 ×g for 5 minutes at room temperature. After centrifugation, the supernatant was removed. This step was repeated twice. • iii. Diluted red blood cells: 1.5 volumes of PBS were added, then resuspended and mixed thoroughly. • iv. The diluted red blood cells were slowly added to 0.5 volume of 70% isotonic solution (e.g., 7.5 mL of diluted red blood cells + 3 mL of 70% isotonic solution Percoll) and centrifuged at 4000 ×g for 20 minutes at 4°C. • v. The supernatant was removed. The red blood cells at the bottom were washed once with 4-5 mL of PBS to elute the Percoll gel, and then centrifuged at 2000 ×g for 5 minutes at room temperature. • vi. The supernatant was removed. The red blood cells were counted and then diluted in AGAM medium containing 10% FBS to a density of 2 × 10^8 cells/mL for storage at 4°C.
i. The red blood cells were seeded into a 96-well plate at a uniform density of 1 × 10^7 cells/mL, with 100 µL per well. The test compounds (dissolved in DMSO) were diluted and added to the cell culture medium, resulting in final compound concentrations of 3000, 1000, 300, 100, 10, 3, and 1 nM (with 1% DMSO). The cells and compounds were co-cultivated for 3 hours in a 37°C incubator with 5% CO2. Subsequently, the plate was centrifuged at 2000 g for 20 minutes, and the supernatant was discarded. 100 µL of red blood cell lysis buffer was added to the cell pellet, vortexed for 20 minutes, and centrifuged at 4000 g for 5 minutes. The supernatant was collected for analysis. ii. The reaction system was prepared according to the kit instructions (shown as the table below), 10 µL of the reaction system was added to each well of a 384-well plate, and 10 µL of red blood cell lysis buffer was took and mixed well (20 µL reaction system).
iii. A black, transparent-bottomed 384-well plate was placed in a microplate reader to measure fluorescence at 540/590 nm. The fluorescence was read every 2 minutes for 1 hour.
i. The Slope value was calculated over the assay time. Compound activation percentage was calculated using the 1% DMSO well as the control well. Activation percentage = (Slope of compound well / Slope of control well) × 100% ii. Dose-response curve was fit using the logarithmic compound concentration on the X-axis and the percent activation percentage on the Y-axis, the log(agonist) vs. response - variable slope function in GraphPad Prism 5 was used to determine the AC50 value for each compound on PKR activity. Y = min + (max−min)/(1+10^(∧)((LogAC50−X)×Hillslope)). [formula] The PKR agonist effects of the compound of the present disclosure on ex vivo red blood cells from healthy individuals and thalassemia patients were determined using the above assay. The AC50 values measured on ex vivo red blood cells from healthy individuals are as follows (A represents 0-100 nM, B represents 101-300 nM, and C represents 300-1000 nM): […]

Assay [2] concerns the target recombinant human PKR (Homo sapiens, UniProt P30613). In words: pyruvate kinase (PKR) activity test, activation of recombinant enzyme (fluorescence kit). Format: biochemical. The procedure:
To test the activation effect of the compound of the present disclosure on recombinant human PKR.
3.1 A recombinant human PKR enzyme solution was prepared at a concentration of 60 ng/well (a 20 µL reaction system), and 5 µL of the solution was added into each well of a black transparent bottom 384-well plate.
3.2 Compound solutions were prepared at different concentrations, with the final concentrations of 1000/300/100 nM (containing 1% DMSO). Each 5 µL of the compound solution was added into the plate in step 3.1 and mixed well. The plate was incubated at room temperature for 10 min.
3.3 A reaction system was prepared according to the instructions of a kit (as shown in the table below), and 10 µL of the reaction system was added into each well of the 384-well plate, and mixed uniformly with the solution in step 3.2.
3.4 The 384-well plate was placed on a microplate reader to detect the fluorescence value at 540/590 nm, where the value was read every 2 minutes and the detection was conducted continuously for 1 hour.
3.5 The Slope value within the detection time was calculated, and the 1% DMSO well was used as a control well to calculate a compound activation rate. Activation rate % = (Slopeofcompoundwell/Slopeofcontrolwell) × 100% [formula]
With the log value of the compound concentration as the X axis and the percentage activation rate as the Y axis, a dose-effect curve was fitted with the log(agonist) vs. response-variable slope of the analysis software GraphPad Prism 5, and the AC50 value of the activity of each compound against PKR was obtained. Y = min + (max−min)/(1+10^(∧)((LogAC50−X)×Hillslope)). [formula]

SMILES strings stand for the structures.

T1 sequence (P30613 whole entry): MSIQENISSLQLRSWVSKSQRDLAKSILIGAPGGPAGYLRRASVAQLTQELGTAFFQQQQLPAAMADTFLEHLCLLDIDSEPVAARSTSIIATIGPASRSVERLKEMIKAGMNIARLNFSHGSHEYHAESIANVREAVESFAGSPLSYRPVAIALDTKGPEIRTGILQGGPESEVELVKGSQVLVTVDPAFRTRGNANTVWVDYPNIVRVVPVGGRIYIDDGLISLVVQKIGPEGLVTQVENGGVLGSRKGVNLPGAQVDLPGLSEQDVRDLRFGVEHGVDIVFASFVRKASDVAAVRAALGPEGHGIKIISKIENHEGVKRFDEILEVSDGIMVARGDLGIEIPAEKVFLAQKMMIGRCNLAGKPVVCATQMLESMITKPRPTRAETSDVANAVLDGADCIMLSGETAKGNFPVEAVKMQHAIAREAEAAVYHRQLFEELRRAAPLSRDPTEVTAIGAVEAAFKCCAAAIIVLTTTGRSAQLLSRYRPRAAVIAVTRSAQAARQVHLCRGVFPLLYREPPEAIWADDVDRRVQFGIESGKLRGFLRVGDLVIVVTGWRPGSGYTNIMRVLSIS
Sequence of recombinant human PKR (P30613 whole entry): as above

The AC50 is the midpoint of the concentration-response curve, whichever way the signal moves. For the compound `O=C(C(CO)c1ccccc1)N1CC(=C2CN(S(=O)(=O)c3ccc(OC(F)F)cc3)C2)C1` (stereo not shown) [Compound 6, 1-(1'-((4-(difluoromethoxy)phenyl)sulfonyl)-1',4'-dihydro-2H,2'H-[3,3'-diazetidinylidene]-1(4H)-yl)-3-hydroxy-2-phenylpropan-1-one], the AC50 in assay [1] was 101 to 300 nM; in assay [2] it was under 100 nM.
In the case of `O=C(C(O)c1ccccc1)N1CC(=C2CN(S(=O)(=O)c3ccc(OC(F)F)cc3)C2)C1` (stereo not shown) [Compound 8, 1-(1'-((4-(difluoromethoxy)phenyl)sulfonyl)-1',4'-dihydro-2H,2'H-[3,3'-diazetidinylidene]-1(4H)-yl)-2-hydroxy-2-phenylethan-1-one], the AC50 in assay [1] is under 100 nM; in assay [2], 300 to 1000 nM.
The corresponding values for `O=C(N1CC(=C2CN(S(=O)(=O)c3ccc(OC(F)F)cc3)C2)C1)C1(c2ccccc2)CCOCC1` [Compound 14, (1'-((4-(difluoromethoxy)phenyl)sulfonyl)-1',4'-dihydro-2H,2'H-[3,3'-diazetidinylidene]-1(4H)-yl)(4-phenyltetrahydro-2H-pyran-4-yl)methanone] are 101 to 300 nM and 101 to 300 nM.
In the same order, the values of `O=C(C(CO)c1ccc(F)cc1)N1CC(=C2CN(S(=O)(=O)c3ccc4c(c3)OCCO4)C2)C1` (stereo not shown) [Compound 18, 1-(1'-((2,3-dihydrobenzo[b][1,4]dioxin-6-yl)sulfonyl)-1',4'-dihydro-2H,2'H-[3,3'-diazetidinylidene]-1 (4H)-yl)-2-(4-fluorophenyl)-3-hydroxypropan-1-one] are under 100 nM and under 100 nM.
Consider `O=C(C(CO)c1ccc(F)cc1)N1CC(=C2CN(S(=O)(=O)c3cnc4c(c3)OCCO4)C2)C1` (stereo not shown) [Compound 19, 1-(1'-((2,3-dihydro-[1,4]dioxolane[2,3-b]pyridin-7-yl)sulfonyl)-1',4'-dihydro-2H,2'H-[3,3'-diazetidinylidene]-1(4H)-yl)-2-(4-fluorophenyl)-3-hydroxypropan-1-one], for which the AC50 in assay [1] fell in the range of 300 to 1000 nM; in assay [2], 101 to 300 nM.
Turning to `NC(C(=O)N1CC(=C2CN(S(=O)(=O)c3ccc(OC(F)F)cc3)C2)C1)c1ccccc1` (stereo not shown) [Compound 21, 2-amino-1-(1'-((4-(difluoromethoxy)phenyl)sulfonyl)-1',4'-dihydro-2H,2'H-[3,3'-diazetidinylidene]-1 (4H)-yl)-2-phenylethan-1-one], the AC50 was under 100 nM in assay [1] and 300 to 1000 nM in assay [2].
Take `CNCC(C(=O)N1CC(=C2CN(S(=O)(=O)c3ccc4c(c3)OCCO4)C2)C1)c1cccc(Cl)c1` (stereo not shown) [Compound 26, 2-(3-chlorophenyl)-1-(1'-((2,3-dihydrobenzo[b][1,4]dioxin-6-yl)sulfonyl)-1',4'-dihydro-2H,2'H-[3,3'-diazetidinylidene]-1(4H)-yl)-3-(methylamino)propan-1-one]: the AC50 in assay [1] is 300 to 1000 nM; in assay [2], under 100 nM.
For `O=C([C@H](CO)c1ccccc1)N1CC(=C2CN(S(=O)(=O)c3ccc(-c4ncco4)c(F)c3)C2)C1` [Compound 27, (S)-1-(1'-((3-fluoro-4-(oxazol-2-yl)phenyl)sulfonyl)-1',4'-dihydro-2H,2'H-[3,3'-diazetidinylidene]-1(4 H)-yl)-3-hydroxy-2-phenylpropan-1-one], the AC50 in assay [1] and in assay [2] was 300 to 1000 nM throughout.
In the case of `O=C(N1CC(=C2CN(S(=O)(=O)c3ccc4ncsc4c3)C2)C1)C1(c2ccccc2)CCOCC1` [Compound 29, (1'-(benzo[d]thiazol-6-ylsulfonyl)-1',4'-dihydro-2H,2'H-[3.3'-diazetidinylidene]-1(4H)-yl)(4-phenyltetrahydro-2H-pyran-4-yl)methanone], the AC50 in assay [1] and in assay [2] was under 100 nM throughout.
Consider `Cc1nc2ccc(S(=O)(=O)N3CC(=C4CN(C(=O)[C@H](CO)c5ccccc5)C4)C3)cc2s1` [Compound 35, (S)-3-hydroxy-1-(1'-((2-methylbenzo[d]thiazol-6-yl)sulfonyl)-1',4'-dihydro-2H,2'H-[3,3'-diazetidinylidene]-1(4H)-yl)-2-phenylpropan-1-one], for which the AC50 in assay [1] and in assay [2] was under 100 nM in each case.
In the case of `CN1CCOc2ccc(S(=O)(=O)N3CC(=C4CN(C(=O)[C@H](CO)c5ccccc5)C4)C3)cc21` [Compound 39, (S)-3-hydroxy-1-(1'-((4-methyl-3,4-dihydro-2H-benzo[b][1,4]oxazin-6-yl)sulfonyl)-1',4'-dihydro-2H, 2'H-[3,3'-diazetidinylidene]-1(4H)-yl)-2-phenylpropan-1-one], the AC50 in assay [1] and in assay [2] was under 100 nM throughout.
For `O=C(Cc1ccccc1)N1CC(=C2CN(S(=O)(=O)c3ccc4ncsc4c3)C2)C1` [Compound 47, 1-(1'-(benzo[d]thiazol-6-ylsulfonyl)-1',4'-dihydro-2H,2'H-[3,3'-diazetidinylidene]-1(4H)-yl)-2-phenyl ethan-1-one], the AC50 in assay [1] and in assay [2] was 300 to 1000 nM each time.
For `O=C(C(CO)c1ccc(F)cc1)N1CC(=C2CN(S(=O)(=O)c3ccc4ncsc4c3)C2)C1` [Compound 50, (S)-1-(1'-(benzo[d]thiazol-6-ylsulfonyl)-1',4'-dihydro-2H,2'H-[3,3'-diazetidinylidene]-1(4H)-yl)-2-(4-fluorophenyl)-3-hydroxypropan-1-one], the AC50 in assay [1] and in assay [2] was under 100 nM in each case.
Regarding `O=C(c1c[nH]c2ccccc12)N1CC(=C2CN(S(=O)(=O)c3ccc4ncsc4c3)C2)C1` [Compound 52, (1'-(benzo[d]thiazol-6-ylsulfonyl)-1',4'-dihydro-2H,2'H-[3,3'-diazetidinylidene]-1(4H)-yl)(1H-indol-3-yl)methanone], the AC50 in assay [1] and in assay [2] was 300 to 1000 nM each time.
`COc1ccc(C(CO)C(=O)N2CC(=C3CN(S(=O)(=O)c4ccccn4)C3)C2)cc1` (stereo not shown) [Compound 53, 3-hydroxy-2-(4-methoxyphenyl)-1-(1'-(pyridin-2-ylsulfonyl)-1',4'-dihydro-2H,2'H-[3,3'-diazetidinylidene]-1(4H)-yl)propan-1-one]: the values for the AC50 in assay [1] and in assay [2] were 101 to 300 nM and 300 to 1000 nM, respectively.
As to `O=C(c1c[nH]c2ccccc12)N1CC(=C2CN(S(=O)(=O)c3ccccn3)C2)C1` [Compound 56, (1H-indol-3-yl)(1'-(pyridin-2-ylsulfonyl)-1',4'-dihydro-2H,2'H-[3,3'-diazetidinylidene]-1(4H)-yl)met hanone], the AC50 in assay [1] and in assay [2] was 300 to 1000 nM throughout.
For the compound `Cc1ccc(C(CO)C(=O)N2CC(=C3CN(S(=O)(=O)c4ccccn4)C3)C2)cc1` (stereo not shown) [Compound 57, 3-hydroxy-1-(1'-(pyridin-2-ylsulfonyl)-1',4'-dihydro-2H,2'H-[3,3'-diazetidinylidene]-1(4H)-yl)-2-(p-tolyl)propan-1-one], the AC50 in assay [1] is under 100 nM; in assay [2], 101 to 300 nM.
